In patent US12377092B2, “Polycomb inhibitors and uses thereof” (FONDAZIONE ISTITUTO FIRC DI ONCOLOGIA MOLECOLARE (IFOM), priority 2017, dated 2025):
“Also recorded” adds a separate entry of the source. Like-named read-outs stand apart in the source and are kept apart here.

What was measured:
Assay type in all cases: cell-based, mouse
[1] = tested on: EndMT markers (Klf4, Sca1 and Fsp1); details: 72 hours
Procedure: (§1) Cells were seeded 6.3×10^4 cells/cm^2. The day after, PTC209 and UNC1999 were added to the confluent cells. Drugs were left for one or three days depending on the aim of the experiment. Final concentrations used for the two drugs were: 1 uM PTC209 and 5 uM UNC1999.
(§2) RNA extraction was performed both with (A) RNeasy kits (Promega) or (B) RNAeasy Mini Kit (QIAGEN). The latter allows also the extraction of proteins from the same sample. The RNA (500 ng) was reverse transcribed with random hexamers (High Capacity cDNA Archive kits; Applied Biosystems) in a final volume of 30 uL. Reaction were made with a thermocycler (Eppendorf) 10 min at 25° C. followed by 2 hours at 37° C. cDNA (5 ng) was amplified in triplicate in a reaction volume of 15 uL using TaqMan Gene Expression Assays (Applied Biosystems) in a ABI/Prism 7900 HT using a pre PCR step of 10 min at 95° C., followed by 40 cycles of 15 seconds at 95° C. and 60 seconds at 60° C. For each sample, the expression level was determined with the comparative threshold cycle (Ct) method, and normalized to the housekeeping genes encoding 18S, glyceraldehyde-3-phosphate dehydrogenase (GAPDH) and hypoxanthine-guanine phosphoribosyltransferase (hprt1). Ct or threshold cycle, represents the PCR cycle at which an increase in reporter fluorescence above a base-line signal can first be detect.

[2] = tested on: EndMT markers (Klf4, Sca1 and Fsp1); assay: Western blot analysis of EndMT markers, wild type and CCM3 knock out immortalized lung endothelial cells; details: 72 hours
Procedure: as §1
Confluent cells were lysed with boiling modified Laemi sample Buffer (2% SDS, 20% glycerol, and 125 mM Tris-HCl, pH 6.8). Lysates were incubated for 10 minutes at 100° C. to allow proteins denaturation. Protein concentration was estimated using the BCA Protein Assay Kit (Pierce). Equal amount of proteins was loaded on a gel, separated by SDS-PAGE and transferred to a Protran Nitrocellulose Membrane (Whatman) 0.2 um pores. The membranes were blocked for 1 hour at RT in Tris Buffered Saline (TBS: NaCl 150 mM, Tris-HCl 10 mM pH 7.4) plus 0.1% Tween-20 containing 5% BSA or milk. The membranes were incubated with primary antibodies diluted in TBST (TBS plus 0.1% Tween-20) containing 5% of either BSA or milk overnight at 4° C. Next, membranes were rinsed three times with TBST for 5 minutes each and incubated for 45 minutes at RT with HRP-linked secondary antibodies diluted in TBST containing 5% BSA/milk. Membranes were rinsed three times with TBST for 5 minutes each and specific bindings were detected by enhanced chemiluminescence (ECL) system (Amersham Bioscience) using ChemiDoc XRS gel imaging system (Bio-Rad).
Wild type and CCM3 knock out cells were treated with either PTC209 or DMSO starting from the day after seeding, when cells were confluent. For this experiment cells were lysed for western blot and real-time analysis after 72 hours of treatment to check a long-term effect of PTC209.
To perform these experiments, immortalized lung endothelial cells both wild type and CCM3 knock out were treated, with the same experimental strategy used for PTC209, with UNC1999 for 72 hours and subsequently lysed for western blot and real time analysis. UNC1999 was used in its specific optimal concentration, which was different to PTC209. As control DMSO was given to the cells in a volume equal to the volume of DMSO in which UNC1999 was previously dissolved to rich the optimal concentration.
Briefly, wild type and CCM3 knock out cells were treated with either PTC209, UNC1999 or a combination of the two. PTC209 and UNC1999 were administrated at the same concentration used for the single treatment and DMSO was given as control in a volume equal to the sum of volumes of DMSO in which UNC1999 and PTC209 were previously dissolved.

VE-cadherin and PECAM1 = assay: Real time analysis of VE-cadherin and Pecam1 transcripts, CCM1 knock out cells; details: PTC209
Procedure: as §2
Also for CCM1 model, the inventors tested the effect of Bmi1 inhibition on junction organisation. […]

CCM1 knock out cells = assay: Immunofluorescence of junction organisation (VE-cadherin, PECAM1), wild type and CCM1 knock out cells
Text: Also for CCM1 model, the inventors tested the effect of Bmi1 inhibition on junction organisation. The inventors repeated PTC209-treatment on CCM1 model with the same experimental conditions described before, and the inventors analysed VE-cadherin and PECAM1 expression by immunofluorescence analysis (FIG. 12) in parallel with real time analysis (FIG. 13).

[3] = tested on: EndMT markers (Klf4, Sca1 and Fsp1); assay: Immunofluorescence analysis of EndMT markers, CCM1 knock out cells; details: CCM1 knockout cells; PTC209 vs DMSO
Procedure: Treatment with PTC209 was performed with the same experimental conditions used for CCM3 model. After treatment cells were analysed by western blot (FIG. 9), real time (FIG. 10) and immunofluorescence (FIG. 11) analysis. […] This observation resembled what was previously observed for human patients as well as for CCM3 mouse model, namely that mutation in Ccm3 led to a more severe phenotype, with higher risk of cerebral haemorrhage and more severe malformations, compare to patients with mutation in Ccm1 and Ccm2 (Denier et al., 2006).

[4] = tested on: Axin2, Serpin1, Id1, Hes1 and Dll4; assay: Real-time PCR of target genes of β-catenin, TGFβ and Delta-Notch pathways, wild type and CCM3 knock out cells; details: PTC209 72 hours
Procedure: as §2
To perform these experiments, wild type and CCM3 knock out cells were treated with PTC209 with the same experimental conditions described before, and subsequently lysed for gene expression analysis.
Axin2 was checked as evidence of β-catenin pathway activation (FIG. 25A), Serpin1 and Id1 for TGFβ signalling (FIG. 25B), while Hes1 and Dll4 for Notch pathway activation (FIG. 25C).

[5] = CCM3 knock out cells (pathological conditions)
[6] = CCM3 knock out cells (pathological)
[7] = wild type cells (physiological)

`COc1cc(Br)c(Nc2nc(-c3c(C)nc4ncccn34)cs2)c(Br)c1` [PTC209, N-(2,6-dibromo-4-methoxyphenyl)-4-(2-methylimidazo[1,2-a]pyrimidin-3-yl)thiazol-2-amine] was tested, and the “Klf4 transcript (real time analysis)” value ([1]; CCM1 knock out cells) was “downregulated”, the “Sca1 and Fsp1 transcripts (real time analysis)” value ([1]; CCM1 knock out cells) was “downregulated” and the “EndMT markers (Klf4, Sca1, Fsp1) transcript levels (real time analysis)” value ([1]; CCM1 knock out cells, vs DMSO) was “strong inhibition”. For the same molecule, the “Klf4 transcript (real time analysis)” value ([1]; wild type cells (physiological condition), CCM1 model) was “not downregulated”, the “Klf4 protein up-regulation induced by CCM3 deletion (western blot)” value ([2]; CCM3 knock out cells) was “completely rescued” and the “levels of Klf4 and Sca1 protein in treated CCM3 knock out cells versus wild type cells” value ([2]; CCM3 knock out cells, 1 uM PTC209) was “comparable with the levels expressed by wild type cells”. The “EndMT markers (Klf4, Sca1, Fsp1) protein expression (western blot)” value ([2]; CCM3 knock out cells, 1 uM PTC209, 5 uM UNC1999, vs DMSO) was “strongly downregulated; also recorded: inhibition of the upregulation”, the “Klf4 protein (western blot)” value ([2]; wild type cells (physiological condition), CCM3 model) was “not affected” and the “VE-cadherin and PECAM1 transcript levels (gene expression analysis)” value (VE-cadherin and PECAM1) was “did not show any rescue”. The “junction organisation (VE-cadherin, PECAM1 immunostaining)” value (CCM1 knock out cells; CCM1 knock out cells) was “visible reorganisation of junctions”, the “junction organisation (VE-cadherin, PECAM1 immunostaining)” value (CCM1 knock out cells; wild type cells, CCM1 model) was “remained unchanged” and the “upregulation of Klf4, Sca1 and Fsp1 (relative fluorescence intensity)” value [3] was “inhibited”. The “Hes1 transcript (Notch pathway)” value [4, 5] was “downregulated”, the “Serpin1 transcript (TGFβ signalling)” value [4, 5] was “upregulated” and the “Axin2 transcript (β-catenin pathway)” value [4, 6] was “downregulation”. The “Id1 transcript (TGFβ signalling)” value [4, 6] was “downregulation”, the “Axin2 transcript (β-catenin pathway)” value [4, 7] was “downregulation” and the “Id1 transcript (TGFβ signalling)” value [4, 7] was “downregulation”.
